Assay results reported in patent publication US6548553B2, “Styryl sulfone anticancer agents” (Temple University-of the Commonwealth System of Higher …, priority 1997, dated 2003).

Key:
[1] = Trypan blue exclusion viability assay, normal fibroblast cell lines; assay type: cell-based; details: mouse (NIH3T3), human (HFL), NIH3T3 and HFL cells (normal fibroblast cell lines), 2.5 and 5.0 μM, read-out: percent viability
Experimental: The effect of FR-20 on the growth of normal and tumor cells of breast and prostate was examine utilizing nine cell lines: NIH/3T3 and HFL (normal fibroblast cell lines); MCF-7 and 361 ([…] breast tumor cell lines); BT-20, 435 and SKBR-3 ([…] breast tumor cell lines); LnCaP (androgen sensitive prostate tumor cell line); PC-3 and DU-145 (androgen insensitive prostate tumor cell line).
The cells were grown as in Example 22, A. FR-20 was dissolved in DMSO and added to the cells at 2.5 μM and 5.0 μM concentration. To control cells, DMSO was added equivalent to the volume of solvent (DMSO) present at the highest concentration of the compound. The activity of the compound was evaluated after 48 hours by Trypan blue exclusion. […] Nearly 50% of SKBR-3 and BT-20 cells were dead at 2.5 μM and 75% at 5.0 μM concentration of the compound. […] FRI-20 had profound effect on the viability of androgen-dependent LnCaP prostate tumor cell line when compared to androgen-independent DU-145 and PC-3 prostate cell lines. At […] FRI-20, 80% of LnCaP, 40% of PC-3 and 20% of DU-145 cells were killed. At […] FRI-20, 72% of LnCaP, 47% of PC-3 and 40% of DU-145 were killed (FIG. 3B).

ERK-2 = molecular target: T1, ERK-2 (Homo sapiens, UniProt P28482); assay: Immune complex ERK-2 kinase assay with MBP substrate, treated cells; assay type: cell-based; set-up: dose or concentration left out as unconfirmed; details: prostate tumor cells
T1 construct: ERK-2 in 100 mg of cell lysate was immunoprecipitated; endogenous in cells; host or cells: LnCaP, MCF-7 (human) and NIH3T3 (mouse) cells
Experimental: To examine the effects of FRI-20 on the MAPK pathway, NIH3T3, LnCaP and MCF-7 cells were incubated with FRI-20 at a concentration […] for 48 hours. Following incubation of cells in the presence and absence of FRI-20, the cells were lysed using ERK lysis buffer containing 20 mM HEPES (pH 7.4), 50 mM β-glycerophosphate, 0.5% Triton X-100, 2 mM MgCl2, 1 mM EGTA, 1 mM dithiothreitol, 2 μg/ml leupeptin, 2 μg/ml aprotinin, 100 μM phenylmethylsulfonyl fluoride, and 1 mM benzamidine. ERK-2 in […] of cell lysate was immunoprecipitated by incubating lysate protein with […] of ERK-2 polyclonal antibody (antibody sc-154 to ERK2 is from Santa Cruz Biotechnology, Inc.) for one hour followed by an additional incubation of 20 μl of protein A-Sepharose (Pharmacia) for one hour. The immune complex-bound protein A-Sepharose beads were washed twice with lysis buffer and twice with
ERK/MAPK buffer containing 20 mM HEPES (pH 7.4), 50 mM β-glycerophosphate, 10 mM MgCl2, 1 mM EGTA, 1 mM dithiothreitol, and […] Na3VO4.
The immunoprecipitates were then tested for MAP kinase activity by an in vitro assay which utilizes myelin basic proteins (MBP) as a substrate for ERK-2 in the presence of [γ-^32P] ATP. Accordingly, the beads were resuspended in 40 μl of MAPK buffer containing 100 μM [γ-^32P] […]

T1 sequence (P28482 2-360): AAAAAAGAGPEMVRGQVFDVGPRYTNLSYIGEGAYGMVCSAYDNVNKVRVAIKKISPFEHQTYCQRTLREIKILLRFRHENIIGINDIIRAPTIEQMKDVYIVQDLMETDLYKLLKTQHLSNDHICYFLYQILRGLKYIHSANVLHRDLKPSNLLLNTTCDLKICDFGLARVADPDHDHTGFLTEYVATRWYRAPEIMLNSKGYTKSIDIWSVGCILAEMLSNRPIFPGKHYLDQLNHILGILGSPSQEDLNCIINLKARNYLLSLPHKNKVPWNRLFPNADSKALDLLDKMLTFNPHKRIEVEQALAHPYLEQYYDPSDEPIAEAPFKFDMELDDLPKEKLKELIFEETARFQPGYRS

O=S(=O)(/C=C/c1ccc(F)cc1)Cc1ccc(Cl)cc1 [Example 11, E-4-fluorostyryl 4-chlorobenzyl Sulfone]
viability at 48 h [1]: 85 to 90%
reduction of phosphorylation status of MBP compared to mock-treated cells (ERK-2): more than 80%
